The assay deals with SREBP-2 (Homo sapiens (Human), UniProt Q12772). The assay is described as follows: In vitro assay SREBP-2: PathHunter U2OS SREBP-2 Nuclear Translocation Cell Line, U18666A-stimulated. The class given is cell-based. To be noted: PathHunter U2OS SREBP-2 nuclear translocation cells, U18666A 10 μM, overnight (16 hours).

For `C[C@H](CCC(=O)N1CC[C@H](NC(=O)c2cnccn2)C1)[C@H]1CC[C@H]2[C@@H]3CC=C4C[C@@H](O)CC[C@]4(C)[C@H]3CC[C@]12C` [Example 529, N—((S)-1-((R)-4-((3S,8S,9S,10R,13R,14S,17R)-3-hydroxy-10,13-dimethyl-2,3,4,7,8,9,10,11,12,13,14,15,16,17-tetradecahydro-1H-cyclopenta[a]phenanthren-17-yl)pentanoyl)pyrrolidin-3-yl)pyrazine-2-carboxamide], the IC50 (commonly the concentration needed to halve the response being measured) was less than 250 nM.
Regarding `C[C@H](CCC(=O)N1CC[C@H](Nc2ccncc2)C1)[C@H]1CC[C@H]2[C@@H]3CC=C4C[C@@H](O)CC[C@]4(C)[C@H]3CC[C@]12C` [Example 530, (4R)-4-[(1R,3aS,3bS,7S,9aR,9bS,11aR)-7-hydroxy-9a,11a-dimethyl-1H,2H,3H,3aH,3bH,4H,6H,7H,8H,9H,9aH,9bH,10H,11H,11aH-cyclopenta[a]phenanthren-1-yl]-1-[(3S)-3-[(pyridin-4-yl)amino]pyrrolidin-1-yl]pentan-1-one], the IC50 was in the range of 250 to 1000 nM.
In the case of `C[C@H](CCC(=O)N1CC[C@H](Nc2ccncn2)C1)[C@H]1CC[C@H]2[C@@H]3CC=C4C[C@@H](O)CC[C@]4(C)[C@H]3CC[C@]12C` [Example 531, (R)-4-((3S,8S,9S,10R,13R,14S,17R)-3-hydroxy-10,13-dimethyl-2,3,4,7,8,9,10,11,12,13,14,15,16,17-tetradecahydro-1H-cyclopenta[a]phenanthren-17-yl)-1-((S)-3-(pyrimidin-4-ylamino)pyrrolidin-1-yl)pentan-1-one] it was less than 250 nM; in that of `CNC(=O)N[C@H]1CCN(C(=O)CC[C@@H](C)[C@H]2CC[C@H]3[C@@H]4CC=C5C[C@@H](O)CC[C@]5(C)[C@H]4CC[C@]23C)C1` [Example 533, 1-((S)-1-((R)-4-((3S,8S,9S,10R,13R,14S,17R)-3-hydroxy-10,13-dimethyl-2,3,4,7,8,9,10,11,12,13,14,15,16,17-tetradecahydro-1H-cyclopenta[a]phenanthren-17-yl)pentanoyl)pyrrolidin-3-yl)-3-methylurea], less than 250 nM.
The value for `C[C@H](CCC(=O)N1CC[C@H](NC(=O)N(C)C)C1)[C@H]1CC[C@H]2[C@@H]3CC=C4C[C@@H](O)CC[C@]4(C)[C@H]3CC[C@]12C` [Example 534, 3-((S)-1-((R)-4-((3S,8S,9S,10R,13R,14S,17R)-3-hydroxy-10,13-dimethyl-2,3,4,7,8,9,10,11,12,13,14,15,16,17-tetradecahydro-1H-cyclopenta[a]phenanthren-17-yl)pentanoyl)pyrrolidin-3-yl)-1,1-dimethylurea] was less than 250 nM; that for `C[C@H](CCC(=O)N1CC[C@H](NS(C)(=O)=O)C1)[C@H]1CC[C@H]2[C@@H]3CC=C4C[C@@H](O)CC[C@]4(C)[C@H]3CC[C@]12C` [Example 535, N—((S)-1-((R)-4-((3S,8S,9S,10R,13R,14S,17R)-3-hydroxy-10,13-dimethyl-2,3,4,7,8,9,10,11,12,13,14,15,16,17-tetradecahydro-1H-cyclopenta[a]phenanthren-17-yl)pentanoyl)pyrrolidin-3-yl)methanesulfonamide] was 250 to 1000 nM.
In the case of `CNC(=O)[C@H]1CCN(C(=O)CC[C@@H](C)[C@H]2CC[C@H]3[C@@H]4CC=C5C[C@@H](O)CC[C@]5(C)[C@H]4CC[C@]23C)C1` [Example 536, (S)-1-((R)-4-((3S,8S,9S,10R,13R,14S,17R)-3-hydroxy-10,13-dimethyl-2,3,4,7,8,9,10,11,12,13,14,15,16,17-tetradecahydro-1H-cyclopenta[a]phenanthren-17-yl)pentanoyl)-N-methylpyrrolidine-3-carboxamide] it was 250 to 1000 nM.
For `C[C@H](CCC(=O)N1CC[C@H](C(=O)N(C)C)C1)[C@H]1CC[C@H]2[C@@H]3CC=C4C[C@@H](O)CC[C@]4(C)[C@H]3CC[C@]12C` [Example 537, (S)-1-((R)-4-((3S,8S,9S,10R,13R,14S,17R)-3-hydroxy-10,13-dimethyl-2,3,4,7,8,9,10,11,12,13,14,15,16,17-tetradecahydro-1H-cyclopenta[a]phenanthren-17-yl)pentanoyl)-N,N-dimethylpyrrolidine-3-carboxamide], the IC50 lay in the range of 250 to 1000 nM.
Compound `CCN(CCc1ccccn1)C(=O)CC[C@@H](C)[C@H]1CC[C@H]2[C@@H]3CC=C4C[C@@H](O)CC[C@]4(C)[C@H]3CC[C@]12C` [Example 541, (4R)-4-[(1R,3aS,3bS,7S,9aR,9bS,11aR)-7-hydroxy-9a,11a-dimethyl-1H,2H,3H,3aH,3bH,4H,6H,7H,8H,9H,9aH,9bH,10H,11H,11aH-cyclopenta[a]phenanthren-1-yl]-N-ethyl-N-[2-(pyridin-2-yl)ethyl]pentanamide] returned an IC50 of less than 250 nM.
The value for `C[C@H](CCC(=O)N(C)Cc1ccccn1)[C@H]1CC[C@H]2[C@@H]3CC=C4C[C@@H](O)CC[C@]4(C)[C@H]3CC[C@]12C` [Example 542, (4R)-4-[(1R,3aS,3bS,7S,9aR,9bS,11aR)-7-hydroxy-9a,11a-dimethyl-1H,2H,3H,3aH,3bH,4H,6H,7H,8H,9H,9aH,9bH,10H,11H,11aH-cyclopenta[a]phenanthren-1-yl]-N-methyl-N— [(pyridin-2-yl)methyl]pentanamide] was 250 to 1000 nM.
The value for `C[C@H](CCC(=O)N(C)CCc1ccncc1)[C@H]1CC[C@H]2[C@@H]3CC=C4C[C@@H](O)CC[C@]4(C)[C@H]3CC[C@]12C` [Example 544, (R)-4-((3S,8S,9S,10R,13R,14S,17R)-3-hydroxy-10,13-dimethyl-2,3,4,7,8,9,10,11,12,13,14,15,16,17-tetradecahydro-1H-cyclopenta[a]phenanthren-17-yl)-N-methyl-N-(2-(pyridin-4-yl)ethyl)pentanamide] was less than 250 nM.
In the case of `C[C@H](CCC(=O)Nc1ccc(C(N)=O)cc1)[C@H]1CC[C@H]2[C@@H]3CC=C4C[C@@H](O)CC[C@]4(C)[C@H]3CC[C@]12C` [Example 556, 4-((R)-4-((3S,8S,9S,10R,13R,14S,17R)-3-hydroxy-10,13-dimethyl-2,3,4,7,8,9,10,11,12,13,14,15,16,17-tetradecahydro-1H-cyclopenta[a]phenanthren-17-yl)pentanamido)benzamide] it was less than 250 nM; in that of `C[C@H](CCC(=O)N1CCN(C2CC2)CC1)[C@H]1CC[C@H]2[C@@H]3CC=C4C[C@@H](O)CC[C@]4(C)[C@H]3CC[C@]12C` [Example 558, (4R)-4-[(1R,3aS,3bS,7S,9aR,9bS,11aR)-7-hydroxy-9a,11a-dimethyl-1H,2H,3H,3aH,3bH,4H,6H,7H,8H,9H,9aH,9bH,10H,11H,11aH-cyclopenta[a]phenanthren-1-yl]-1-(4-cyclopropylpiperazin-1-yl)pentan-1-one], less than 250 nM; in that of `C[C@H](CCC(=O)N1CC[C@@H](Oc2ccncc2)C[C@@H]1C)[C@H]1CC[C@H]2[C@@H]3CC=C4C[C@@H](O)CC[C@]4(C)[C@H]3CC[C@]12C` [Example 586, (R)-4-((3S,8S,9S,10R,13R,14S,17R)-3-hydroxy-10,13-dimethyl-2,3,4,7,8,9,10,11,12,13,14,15,16,17-tetradecahydro-1H-cyclopenta[a]phenanthren-17-yl)-1-((2S,4R)-2-methyl-4-(pyridin-4-yloxy)piperidin-1-yl)pentan-1-one], less than 250 nM.

For the origin of these results see patent US20230340011A1 (Asteroid Therapeutics, priority 2022, published 2023).
